This is an account of results in US12485169B2, “Compounds” (GREY WOLF THERAPEUTICS LIMITED, priority 2018, dated 2025).

Each structure is given as a SMILES string.

The target in the experiment is T1, Purified ERAP1 (37-941)-10His (ERAP1) (Homo sapiens, UniProt Q9NZ08).
T1 construct: Purified ERAP1 (37-941)-10His (ERAP1)
T1 sequence (Q9NZ08 37-941): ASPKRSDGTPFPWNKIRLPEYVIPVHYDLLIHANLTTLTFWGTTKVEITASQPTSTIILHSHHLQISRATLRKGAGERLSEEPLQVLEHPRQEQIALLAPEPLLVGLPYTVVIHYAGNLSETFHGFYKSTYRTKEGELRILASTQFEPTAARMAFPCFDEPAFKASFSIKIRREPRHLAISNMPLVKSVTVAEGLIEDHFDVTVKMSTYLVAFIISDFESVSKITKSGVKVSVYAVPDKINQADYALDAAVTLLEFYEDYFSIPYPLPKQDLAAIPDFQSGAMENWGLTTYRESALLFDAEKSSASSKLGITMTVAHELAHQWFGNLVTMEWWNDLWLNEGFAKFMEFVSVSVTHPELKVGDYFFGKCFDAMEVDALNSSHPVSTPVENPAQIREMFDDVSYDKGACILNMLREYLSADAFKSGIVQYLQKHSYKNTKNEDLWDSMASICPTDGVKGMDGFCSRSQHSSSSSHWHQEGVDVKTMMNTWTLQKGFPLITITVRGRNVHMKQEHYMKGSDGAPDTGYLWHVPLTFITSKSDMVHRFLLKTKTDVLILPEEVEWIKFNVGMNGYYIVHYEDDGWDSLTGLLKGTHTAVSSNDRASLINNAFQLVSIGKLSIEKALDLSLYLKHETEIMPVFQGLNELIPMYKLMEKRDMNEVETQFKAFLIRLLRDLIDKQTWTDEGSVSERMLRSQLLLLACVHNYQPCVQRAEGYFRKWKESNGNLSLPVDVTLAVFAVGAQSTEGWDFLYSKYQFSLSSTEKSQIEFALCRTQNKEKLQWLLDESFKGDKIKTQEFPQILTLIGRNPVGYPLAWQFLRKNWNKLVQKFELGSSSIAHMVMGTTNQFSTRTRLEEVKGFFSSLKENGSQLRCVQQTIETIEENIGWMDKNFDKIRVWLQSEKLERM
Put plainly: ERAP1 mediated hydrolysis of an amide substrate (10-mer inhibition assay), biochemical system. The following applies: 10-mer substrate, 23° C., 1 h, excitation 279 nm / emission 355 nm; read-out: IC50 vs Decapeptide WRVYEKC(Dnp)ALK-acid (where Dnp is Dinitrophenyl maleimide) (10-mer). The protocol:
However, as ERAP1 hydrolyses the N-terminal amide bond and tryptophan is released this internal quenching is lost and the reaction is monitored by the increase in tryptophan fluorescence over the course of the assay. For the purposes of this application this assay is referred to as the “10mer inhibition assay” and compound potencies are calculated and expressed as IC50 as would be familiar to a person skilled in the art.
Biological Assay 1: ERAP1 Mediated Hydrolysis of an Amide Substrate Measured in a Biochemical System
Decapeptide WRVYEKC(Dnp)ALK-acid (where Dnp is Dinitrophenyl maleimide) (10-mer) L-Leucine 7-amido-4-methylcoumarin (L-AMC)
12.5 μL ERAP1 enzyme in 1×AB was combined with 250 nL test compound in DMSO. […] For detection, plates were read at excitation 365 nm and emission 442 nm (L-AMC) or excitation 279 nm and emission 355 nm (10-mer).
The term IC50 denotes the concentration that inhibits the measured activity by half. On to `COc1ccc(C(=O)O)cc1S(=O)(=O)Nc1cc(C(F)(F)F)ccc1N1CCCCC1` [Example 54, 4-methoxy-3-(N-(2-(piperidin-1-yl)-5-(trifluoromethyl)phenyl)sulfamoyl)benzoic acid], for which the IC50 is less than 500 nM.
On to `CC(C)c1ccc(C(=O)O)cc1S(=O)(=O)Nc1cc(C(F)(F)F)ccc1N1CCCCCC1` [Example 55, 3-(N-(2-(azepan-1-yl)-5-(trifluoromethyl)phenyl)sulfamoyl)-4-isopropylbenzoic acid], for which the IC50 was less than 500 nM.
With `O=C(O)c1cc(F)cc(S(=O)(=O)Nc2cc(C(F)(F)F)ccc2N2CCCCC2)c1` [Example 59, 3-fluoro-5-(N-(2-(piperidin-1-yl)-5-(trifluoromethyl)phenyl)sulfamoyl)benzoic acid], the IC50 was less than 500 nM.
`CCc1ccc(C(=O)O)cc1S(=O)(=O)Nc1cc(C(F)(F)F)ccc1N1CCCCCC1` [Example 61, 3-(N-(2-(azepan-1-yl)-5-(trifluoromethyl)phenyl)sulfamoyl)-4-ethylbenzoic acid]: the IC50 is more than 5000 nM.
For the compound `Cc1ccc(C(=O)O)cc1S(=O)(=O)Nc1cc(C(F)(F)F)ccc1N1CCCCCC1` [Example 62, 3-(N-(2-(azepan-1-yl)-5-(trifluoromethyl)phenyl)sulfamoyl)-4-methylbenzoic acid], the IC50 is less than 500 nM.
Regarding `COc1ccc(-c2nn[nH]n2)cc1NS(=O)(=O)c1cc(C(F)(F)F)ccc1N1CCCCC1` [Example 63, N-(2-methoxy-5-(tetrazol-5-yl)phenyl)-2-(piperidin-1-yl)-5-(trifluoromethyl) benzenesulfonamide], the IC50 is less than 5000 nM.
For `COc1ccc(C(=O)O)cc1S(=O)(=O)Nc1ccc(Cl)cc1N1CCCCC1` [Example 65, 3-(N-(4-chloro-2-(piperidin-1-yl)phenyl)sulfamoyl)-4-methoxybenzoic acid], the IC50 is less than 500 nM.
As for `COc1ccc(C(=O)O)cc1S(=O)(=O)Nc1cc(Cl)ccc1N1CCCCC1` [Example 66, 3-(N-(5-chloro-2-(piperidin-1-yl)phenyl)sulfamoyl)-4-methoxybenzoic acid], the half-inhibitory concentration (IC50) was less than 500 nM.
With `Cc1ccc(C(=O)O)cc1S(=O)(=O)Nc1cc(C(F)(F)F)ccc1N1CCCCC1` [Example 67, 4-methyl-3-(N-(2-(piperidin-1-yl)-5-(trifluoromethyl)phenyl)sulfamoyl)benzoic acid], the IC50 was less than 500 nM.
`COc1ccc(C(=O)O)cc1S(=O)(=O)Nc1cc(C(F)(F)F)ccc1N1CCCCCC1` [Example 68, 3-(N-(2-(azepan-1-yl)-5-(trifluoromethyl)phenyl)sulfamoyl)-4-methoxybenzoic acid]: the IC50 was less than 500 nM.
For `Cc1ccc(S(=O)(=O)Nc2cc(C(F)(F)F)ccc2N2CCCCC2)cc1C(=O)O` [Example 70, 2-methyl-5-(N-(2-(piperidin-1-yl)-5-(trifluoromethyl)phenyl)sulfamoyl)benzoic acid] the value was less than 5000 nM.
Take `COc1ccc(C(=O)O)cc1S(=O)(=O)Nc1cc(C(F)(F)F)ccc1N1CCOCC1` [Example 72, 4-methoxy-3-(N-(2-morpholino-5-(trifluoromethyl)phenyl)sulfamoyl)benzoic acid]: the IC50 is less than 500 nM.
For `COc1ccc(C(=O)O)cc1S(=O)(=O)Nc1cc(C(F)(F)F)ccc1N1CCCC1` [Example 75, 4-methoxy-3-(N-(2-(pyrrolidin-1-yl)-5-(trifluoromethyl)phenyl)sulfamoyl)benzoic acid] the value was less than 5000 nM; for `COc1ccc(C(=O)O)cc1S(=O)(=O)Nc1cc(C(F)(F)F)ccc1N(C)C` [Example 77, 3-(N-(2-(dimethylamino)-5-(trifluoromethyl)phenyl)sulfamoyl)-4-methoxybenzoic acid], less than 5000 nM; for `O=C(O)c1cc(Cl)cc(S(=O)(=O)Nc2cc(C(F)(F)F)ccc2N2CCCCC2)c1` [Example 80, 3-chloro-5-(N-(2-(piperidin-1-yl)-5-(trifluoromethyl)phenyl)sulfamoyl)benzoic acid], less than 5000 nM.
On to `O=C(O)c1cc(S(=O)(=O)Nc2cc(C(F)(F)F)ccc2N2CCCCC2)ccc1Cl` [Example 83, 2-chloro-5-(N-(2-(piperidin-1-yl)-5-(trifluoromethyl)phenyl)sulfamoyl)benzoic acid], for which the IC50 is less than 5000 nM.
Turning to `COc1ccc(C(=O)O)cc1S(=O)(=O)Nc1cc(C(F)(F)F)ccc1N1CCC(C)CC1` [Example 84, 4-methoxy-3-(N-(2-(4-methylpiperidin-1-yl)-5-(trifluoromethyl)phenyl)sulfamoyl)benzoic acid], the IC50 was less than 5000 nM.
To `O=C(O)c1ccc(Cl)c(S(=O)(=O)Nc2cc(C(F)(F)F)ccc2N2CCCCCC2)c1` [Example 86, 3-(N-(2-(azepan-1-yl)-5-(trifluoromethyl)phenyl)sulfamoyl)-4-chlorobenzoic acid] belongs less than 500 nM; to `O=C(O)c1ccc(O)c(S(=O)(=O)Nc2cc(C(F)(F)F)ccc2N2CCCCC2)c1` [Example 161, 4-hydroxy-3-(N-(2-(piperidin-1-yl)-5-(trifluoromethyl)phenyl)sulfamoyl)benzoic acid], less than 500 nM.
In the case of `COc1ccc(-c2nn[nH]n2)cc1S(=O)(=O)Nc1cc(C(F)(F)F)ccc1N1CCCCC1` [Example 171, 2-methoxy-N-(2-(piperidin-1-yl)-5-(trifluoromethyl)phenyl)-5-(tetrazol-5-yl)benzenesulfonamide], the IC50 was less than 5000 nM.
On to `COc1ccc(C(=O)O)cc1S(=O)(=O)Nc1cc(C(F)(F)F)ccc1N1CCCC(O)C1` (stereo not shown) [Example 177, 3-(N-(2-(3-hydroxypiperidin-1-yl)-5-(trifluoromethyl)phenyl)sulfamoyl)-4-methoxybenzoic acid], for which the IC50 was less than 500 nM.
Consider `COc1ccc(C(=O)O)cc1S(=O)(=O)Nc1cc(C(F)(F)F)ccc1N1CC[C@H](O)C1` [Example 178, (S)-3-(N-(2-(3-hydroxypyrrolidin-1-yl)-5-(trifluoromethyl)phenyl)sulfamoyl)-4-methoxybenzoic acid], for which the IC50 was less than 5000 nM.
Take `COc1ccc(C(=O)O)cc1S(=O)(=O)Nc1cc(C(F)(F)F)ccc1N1CCCC(OC)C1` (stereo not shown) [Example 179, 4-methoxy-3-(N-(2-(3-methoxypiperidin-1-yl)-5-(trifluoromethyl)phenyl)sulfamoyl)benzoic acid]: the IC50 was less than 500 nM.
On to `CCOC1CCN(c2ccc(C(F)(F)F)cc2NS(=O)(=O)c2cc(C(=O)O)ccc2OC)CC1` [Example 180, 3-(N-(2-(4-ethoxypiperidin-1-yl)-5-(trifluoromethyl)phenyl)sulfamoyl)-4-methoxybenzoic acid], for which the IC50 was less than 500 nM.
For the compound `COc1ccc(C(=O)O)cc1S(=O)(=O)Nc1cc(C(F)(F)F)ccc1N1CCC(OC)CC1` [Example 181, 4-methoxy-3-(N-(2-(4-methoxypiperidin-1-yl)-5-(trifluoromethyl)phenyl)sulfamoyl)benzoic acid], the IC50 is less than 500 nM.
For `COc1ccc(C(=O)O)cc1S(=O)(=O)Nc1cc(C#N)ccc1N1CCCCC1` [Example 182, 3-(N-(5-cyano-2-(piperidin-1-yl)phenyl)sulfamoyl)-4-methoxybenzoic acid], the IC50 was less than 500 nM.
For `CCc1ccc(C(=O)O)cc1S(=O)(=O)Nc1cc(C(F)(F)F)ccc1N1CC(O)C1` [Example 183, 4-ethyl-3-(N-(2-(3-hydroxyazetidin-1-yl)-5-(trifluoromethyl)phenyl)sulfamoyl)benzoic acid], the IC50 is more than 5000 nM.
`COc1ccc(C(=O)O)cc1S(=O)(=O)Nc1cc(C(F)(F)F)cc(F)c1N1CCCCC1` [Example 184, 3-(N-(3-fluoro-2-(piperidin-1-yl)-5-(trifluoromethyl)phenyl)sulfamoyl)-4-methoxybenzoic acid]: the IC50 was less than 500 nM.
For `COc1ccc(C(=O)O)cc1S(=O)(=O)Nc1cc(C(F)(F)F)ccc1N1CCC(O)(C2CC2)CC1` [Example 185, 3-(N-(2-(4-cyclopropyl-4-hydroxypiperidin-1-yl)-5-(trifluoromethyl)phenyl)sulfamoyl)-4-methoxybenzoic acid] the value was less than 500 nM.
For the compound `COc1ccc(C(=O)O)cc1S(=O)(=O)Nc1cc(C(F)(F)F)ccc1N1CCC2(CCO2)CC1` [Example 186, 3-(N-(2-(1-oxa-7-azaspiro[3.5]nonan-7-yl)-5-(trifluoromethyl)phenyl)sulfamoyl)-4-methoxybenzoic acid], the IC50 was less than 500 nM.
Turning to `COc1ccc(C(=O)O)cc1S(=O)(=O)Nc1cc(C(F)(F)F)ccc1N1CCC(OC(C)C)CC1` [Example 187, 3-(N-(2-(4-isopropoxypiperidin-1-yl)-5-(trifluoromethyl)phenyl)sulfamoyl)-4-methoxybenzoic acid], the IC50 is less than 5000 nM.
As for `COc1ccc(C(=O)O)cc1S(=O)(=O)Nc1cc(C(F)(F)F)ccc1N1CC[C@@H](O)C1` [Example 188, (R)-3-(N-(2-(3-hydroxypyrrolidin-1-yl)-5-(trifluoromethyl)phenyl)sulfamoyl)-4-methoxybenzoic acid], the IC50 is less than 5000 nM.
To `CCC1(O)CN(c2ccc(C(F)(F)F)cc2NS(=O)(=O)c2cc(C(=O)O)ccc2OC)C1` [Example 189, 3-(N-(2-(3-ethyl-3-hydroxyazetidin-1-yl)-5-(trifluoromethyl)phenyl)sulfamoyl)-4-methoxybenzoic acid] belongs more than 5000 nM.
As to `O=C(O)c1ccc(C(F)(F)F)c(S(=O)(=O)Nc2cc(C(F)(F)F)ccc2N2CCCCC2)c1` [Example 200, 3-(N-(2-(piperidin-1-yl)-5-(trifluoromethyl)phenyl)sulfamoyl)-4-(trifluoromethyl)benzoic acid], the IC50 was less than 5000 nM.
